Source: PubChem BioAssay (NCI)
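Each compound was tested at five concentrations against cells in 96-well plates for 48 hours. The concentration for 50% growth inhibition is given as GI50. TGI: concentration producing complete growth inhibition.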

Tests used:
Assay in all cases: NCI tumour cell line growth inhibition, 48 h
[1] = test system: U251 CNS
[2] = test system: SNB-75 CNS
[3] = test system: TK-10 renal
[4] = test system: SN12C renal
[5] = test system: PC-3 prostate
[6] = test system: MDA-MB-231 breast
[7] = test system: DU-145 prostate
[8] = test system: T-47D breast
[9] = test system: HOP-92 NSCLC
[10] = test system: COLO 205 colon
[11] = test system: SNB-19 CNS
[12] = test system: UO-31 renal
[13] = test system: HCT-15 colon
[14] = test system: OVCAR-8 ovarian
[15] = test system: IGROV1 ovarian
[16] = test system: HS 578T breast
[17] = test system: MCF7 breast
[18] = test system: SF-295 CNS
[19] = test system: MDA-MB-435
[20] = test system: OVCAR-5 ovarian
[21] = test system: OVCAR-3 ovarian
[22] = test system: EKVX NSCLC
[23] = test system: ACHN renal
[24] = test system: SF-539 CNS
[25] = test system: SK-MEL-28 melanoma
[26] = test system: 786-0 renal
[27] = test system: UACC-257 melanoma
[28] = test system: NCI/ADR-RES ovarian
[29] = test system: A498 renal
[30] = test system: A549 NSCLC
[31] = test system: HT29 colon
[32] = test system: CAKI-1 renal
[33] = test system: UACC-62 melanoma
[34] = test system: NCI-H23 lung
[35] = test system: SK-MEL-2 melanoma
[36] = test system: NCI-H522 lung
[37] = test system: NCI-H226 lung
[38] = test system: HCT-116 colon
[39] = test system: KM12 colon
[40] = test system: RPMI-8226 leukemia
[41] = test system: K-562 leukemia
[42] = test system: NCI-H460 lung
[43] = test system: SR leukemia
[44] = test system: SF-268 CNS
[45] = test system: MOLT-4 leukemia
[46] = test system: RXF 393 renal
[47] = test system: SK-OV-3 ovarian
[48] = test system: BT-549 breast
[49] = test system: SK-MEL-5 melanoma
[50] = test system: M14 melanoma
[51] = test system: SW-620 colon
[52] = test system: HOP-62 NSCLC
[53] = test system: HL-60(TB) leukemia
[54] = test system: HCC-2998 colon
[55] = test system: LOX IMVI melanoma
[56] = test system: CCRF-CEM leukemia
[57] = test system: MALME-3M melanoma

COc1ccc(N(C)c2c3ccccc3nc3[nH]c4ccccc4c23)cc1
GI50 [1]: 0.525 µM | TGI [1]: 2.39 µM | GI50 [2]: 5.19 µM | TGI [2]: 23.6 µM | GI50 [3]: 0.681 µM | TGI [3]: 1.63 µM | GI50 [4]: 0.392 µM | TGI [4]: 1.53 µM | GI50 [5]: 0.424 µM | TGI [5]: 2.63 µM | GI50 [6]: 0.616 µM | TGI [6]: 2.05 µM | GI50 [7]: 0.675 µM | TGI [7]: 3.69 µM | GI50 [8]: 0.986 µM | TGI [8]: 2.61 µM | GI50 [9]: 1.07 µM | TGI [9]: 4.49 µM | GI50 [10]: 0.347 µM | TGI [10]: 6.13 µM | GI50 [11]: 0.634 µM | TGI [11]: 5.62 µM | GI50 [12]: 2.83 µM | TGI [12]: 22.2 µM | GI50 [13]: 2.29 µM | TGI [13]: 9.3 µM | GI50 [14]: 0.798 µM | TGI [14]: 7.42 µM | GI50 [15]: 2.19 µM | TGI [15]: 13.5 µM | GI50 [16]: 2.55 µM | TGI [16]: 11 µM | GI50 [17]: 0.168 µM | TGI [17]: 0.655 µM | GI50 [18]: 0.387 µM | TGI [18]: 2.59 µM | GI50 [19]: 1.12 µM | TGI [19]: 3.22 µM | GI50 [20]: 0.917 µM | TGI [20]: 4.57 µM | GI50 [21]: 0.261 µM | TGI [21]: 1.16 µM | GI50 [22]: 1.06 µM | TGI [22]: 4.12 µM | GI50 [23]: 0.558 µM | TGI [23]: 2.16 µM | GI50 [24]: 0.354 µM | TGI [24]: 1.31 µM | GI50 [25]: 3.86 µM | TGI [25]: 21.8 µM | GI50 [26]: 0.444 µM | TGI [26]: 1.9 µM | GI50 [27]: 3.48 µM | TGI [27]: 10 µM | GI50 [28]: 2.95 µM | TGI [28]: 9.91 µM | GI50 [29]: 0.939 µM | TGI [29]: 2.61 µM | GI50 [30]: 0.724 µM | TGI [30]: 9.19 µM | GI50 [31]: 0.617 µM | TGI [31]: 10.3 µM | GI50 [32]: 0.774 µM | TGI [32]: 3.07 µM | GI50 [33]: 0.875 µM | TGI [33]: 2.64 µM | GI50 [34]: 0.702 µM | TGI [34]: 2.04 µM | GI50 [35]: 6.16 µM | TGI [35]: 26.1 µM | GI50 [36]: 4.98 µM | TGI [36]: 9.55 µM | GI50 [37]: 0.9 µM | TGI [37]: 3.99 µM | GI50 [38]: 0.279 µM | TGI [38]: 1.01 µM | GI50 [39]: 0.296 µM | TGI [39]: 1.24 µM | GI50 [40]: 0.139 µM | TGI [40]: 0.528 µM | GI50 [41]: 0.558 µM | TGI [41]: 16.3 µM | GI50 [42]: 0.151 µM | TGI [42]: 7.12 µM | GI50 [43]: 0.186 µM | TGI [43]: 50 µM | GI50 [44]: 0.373 µM | TGI [44]: 2.27 µM | GI50 [45]: 0.0883 µM | TGI [45]: 50 µM | GI50 [46]: 5.4 µM | TGI [46]: 22.3 µM | GI50 [47]: 0.778 µM | TGI [47]: 4.52 µM | GI50 [48]: 1.24 µM | TGI [48]: 4.39 µM | GI50 [49]: 0.835 µM | TGI [49]: 2.24 µM | GI50 [50]: 0.837 µM | TGI [50]: 1.67 µM | GI50 [51]: 0.582 µM | TGI [51]: 26.4 µM | GI50 [52]: 0.407 µM | TGI [52]: 1.79 µM | GI50 [53]: 0.112 µM | TGI [53]: 0.466 µM | GI50 [54]: 0.268 µM | TGI [54]: 1.02 µM | GI50 [55]: 0.55 µM | TGI [55]: 1.58 µM

CCOC(=O)c1cc(C(=O)c2cc(OC)c(OC)c(OC)c2)n2ccccc12
GI50 [1]: 0.0899 µM | TGI [1]: 38.6 µM | GI50 [2]: 0.0461 µM | TGI [2]: 21.5 µM | GI50 [3]: 11.6 µM | TGI [3]: > 100 µM | GI50 [4]: 1.17 µM | TGI [4]: > 100 µM | GI50 [5]: 0.105 µM | TGI [5]: > 100 µM | GI50 [6]: 2.81 µM | TGI [6]: > 100 µM | GI50 [7]: 0.175 µM | TGI [7]: > 100 µM | GI50 [8]: 1.14 µM | TGI [8]: > 100 µM | GI50 [9]: 25.6 µM | TGI [9]: > 100 µM | GI50 [10]: 0.0588 µM | TGI [10]: 2.57 µM | GI50 [11]: 0.206 µM | TGI [11]: > 100 µM | TGI [12]: > 100 µM | GI50 [13]: 0.0565 µM | TGI [13]: > 100 µM | GI50 [14]: 0.259 µM | TGI [14]: > 100 µM | GI50 [15]: 2.96 µM | TGI [15]: > 100 µM | GI50 [16]: 0.123 µM | TGI [16]: 46.6 µM | GI50 [17]: 0.0606 µM | TGI [17]: > 100 µM | GI50 [18]: 0.0558 µM | TGI [18]: 14.6 µM | GI50 [19]: < 0.0182 µM | TGI [19]: 0.205 µM | GI50 [20]: 0.813 µM | TGI [20]: > 100 µM | GI50 [21]: 0.0334 µM | TGI [21]: 4.11 µM | GI50 [22]: 0.342 µM | TGI [22]: > 100 µM | GI50 [23]: 10.1 µM | TGI [23]: > 100 µM | GI50 [24]: 0.103 µM | TGI [24]: 0.863 µM | GI50 [25]: 6.09 µM | TGI [25]: > 100 µM | GI50 [26]: 0.739 µM | TGI [26]: > 42.7 µM | GI50 [27]: 35.1 µM | TGI [27]: > 100 µM | GI50 [28]: 0.0523 µM | TGI [28]: 2.75 µM | GI50 [29]: 0.0269 µM | TGI [29]: 9.55 µM | GI50 [56]: 0.106 µM | TGI [56]: > 100 µM | GI50 [30]: 0.134 µM | TGI [30]: > 100 µM | GI50 [31]: 0.0425 µM | TGI [31]: > 100 µM | GI50 [57]: 1.06 µM | TGI [57]: > 100 µM | GI50 [32]: 0.15 µM | TGI [32]: > 100 µM | GI50 [33]: 0.0439 µM | TGI [33]: > 100 µM | GI50 [34]: 0.34 µM | TGI [34]: > 100 µM | GI50 [35]: 0.169 µM | TGI [35]: > 74.8 µM | GI50 [36]: 0.0577 µM | TGI [36]: > 37.1 µM | GI50 [37]: 19.3 µM | TGI [37]: > 100 µM | GI50 [38]: 0.0353 µM | TGI [38]: > 100 µM | GI50 [39]: 0.0744 µM | TGI [39]: > 100 µM | GI50 [40]: 0.121 µM | TGI [40]: > 100 µM | GI50 [41]: 0.0501 µM | TGI [41]: > 100 µM | GI50 [42]: 0.0772 µM | TGI [42]: > 100 µM | GI50 [43]: 0.041 µM | TGI [43]: > 100 µM | GI50 [44]: 1.12 µM | TGI [44]: > 100 µM | GI50 [45]: 0.182 µM | TGI [45]: > 100 µM | GI50 [46]: 0.07 µM | TGI [46]: 0.707 µM | GI50 [47]: 0.164 µM | TGI [47]: > 100 µM | GI50 [48]: 0.0597 µM | TGI [48]: > 100 µM | GI50 [49]: 0.0409 µM | TGI [49]: > 100 µM | GI50 [50]: 0.0377 µM | TGI [50]: 0.388 µM | GI50 [51]: 0.0504 µM | TGI [51]: > 100 µM | GI50 [52]: 0.241 µM | TGI [52]: > 67.9 µM | GI50 [53]: 0.0586 µM | GI50 [54]: 0.37 µM | TGI [54]: > 100 µM | GI50 [55]: 0.133 µM | TGI [55]: > 100 µM
